What was measured:
[1] = Crystal; for Normal melting temperature: DTA
[2] = molar enthalpy of vaporization or sublimation; conditions: 381.12 K, Static calorimetry
[3] = Molar enthalpy of transition or fusion; conditions: Crystal; DSC
[4] = molar heat capacity at constant pressure; conditions: 101.33 kPa, Small sample (50 mg) DSC

CCC(=O)c1ccc(O)cc1 [1-(4-hydroxyphenyl)-1-propanone]
Conditions	mass density [kg/m3]
[1], 298 K, 101.33 kPa, X-ray diffraction	1273.1

Conditions	Molar enthalpy of transition or fusion [kcal/mol]	Normal melting temperature [°C]
[1]	–	148.5
[3]	7.56	–

Conditions	molar enthalpy [kcal/mol]
[2], Crystal	26.87

[4], Crystal
Conditions	molar heat capacity at constant pressure [J/K/mol]
288.66 K	188.2
289.98 K	188.2
291.28 K	189.2
292.55 K	189.9
293.82 K	190.1
295.08 K	191.4
296.34 K	192.1
297.6 K	192.7
298.85 K	192.9
300.11 K	193.6
301.36 K	194.5
302.61 K	195.3
303.87 K	196.9
305.13 K	197.5
306.38 K	198.3
307.64 K	198.5
308.89 K	199.3
310.14 K	199.8
311.39 K	201
312.64 K	201.7
313.9 K	202.7
315.15 K	203.5
316.4 K	203.9
317.65 K	204.9
318.9 K	204.9
320.15 K	206.1
321.41 K	206.9
322.66 K	207.6
323.91 K	208.3
325.16 K	209.1
326.41 K	209.8
327.66 K	210.5
328.91 K	211.5
330.16 K	212
331.41 K	212.6
332.66 K	213.6
333.91 K	214.1
335.16 K	215
336.41 K	216.1
337.66 K	216.6
338.91 K	217.2
340.16 K	217.3
341.41 K	218.3
342.66 K	219.2
343.91 K	220.2
345.16 K	220.7
346.41 K	222
347.66 K	222.2
348.91 K	223.1
350.15 K	223.8
351.4 K	225
352.65 K	225.9
353.9 K	226.5
355.15 K	226.9
356.4 K	227.5
357.65 K	228.2
358.9 K	228.9
360.15 K	229.6
361.4 K	230.9
362.65 K	231.4
363.9 K	232.2
365.15 K	232.7
366.39 K	233.5
367.65 K	235.1
368.9 K	235.7
370.15 K	236.6
371.4 K	237.2
372.65 K	237.9
373.9 K	238.7
375.15 K	239.3
376.4 K	240.8
377.64 K	241.3
378.89 K	242.4
380.14 K	243.1
381.39 K	243.7
382.64 K	244.3
383.89 K	245.9

CCCCCCC(=O)c1ccc(O)cc1 [1-(4-hydroxyphenyl)-1-heptanone]
Conditions	Molar enthalpy of transition or fusion [kcal/mol]	Normal melting temperature [°C]
[1]	–	92
[3]	7.5	–

Conditions	molar enthalpy [kcal/mol]
[2], Liquid	24.2

[4]
Conditions	molar heat capacity at constant pressure [J/K/mol]
288.67 K, Crystal	291
289.17 K, Crystal	292.2
289.67 K, Crystal	289.9
290.17 K, Crystal	290.9
290.68 K, Crystal	292.7
291.18 K, Crystal	295
291.68 K, Crystal	296.8
292.18 K, Crystal	295.6
292.69 K, Crystal	295.3
293.19 K, Crystal	296.8
293.69 K, Crystal	295
294.19 K, Crystal	297.4
294.69 K, Crystal	297.4
295.19 K, Crystal	296.8
295.69 K, Crystal	301
296.19 K, Crystal	302.3
296.7 K, Crystal	300.1
297.2 K, Crystal	300.6
297.7 K, Crystal	300.7
298.2 K, Crystal	300.2
298.7 K, Crystal	303
299.2 K, Crystal	302.5
299.7 K, Crystal	304.8
300.2 K, Crystal	307.5
300.7 K, Crystal	306.2
301.2 K, Crystal	305.9
301.7 K, Crystal	306.8
302.2 K, Crystal	306.5
302.7 K, Crystal	307.3
303.2 K, Crystal	308.7
303.7 K, Crystal	307.9
304.2 K, Crystal	309.2
304.7 K, Crystal	311.7
305.2 K, Crystal	310
305.7 K, Crystal	309.6
306.2 K, Crystal	311.9
306.7 K, Crystal	312.9
307.2 K, Crystal	311.4
307.7 K, Crystal	311.2
308.2 K, Crystal	310.6
308.7 K, Crystal	313.4
309.2 K, Crystal	314
309.7 K, Crystal	314.4
310.2 K, Crystal	315.8
310.7 K, Crystal	314.9
311.2 K, Crystal	316.7
311.7 K, Crystal	318
312.2 K, Crystal	317.3
312.7 K, Crystal	318.1
313.2 K, Crystal	319.2
313.7 K, Crystal	320.9
314.2 K, Crystal	320.5
314.7 K, Crystal	319.8
315.2 K, Crystal	319.7
315.7 K, Crystal	323.3
316.2 K, Crystal	322.8
316.7 K, Crystal	323.2
317.2 K, Crystal	324
317.7 K, Crystal	323.8
318.2 K, Crystal	325.7
318.7 K, Crystal	324.1
319.2 K, Crystal	327.1
319.7 K, Crystal	327.1
320.2 K, Crystal	324.7
320.7 K, Crystal	327.1
321.2 K, Crystal	328.9
321.7 K, Crystal	328.9
322.2 K, Crystal	330.3
322.7 K, Crystal	329.6
323.2 K, Crystal	331.2
323.7 K, Crystal	332
324.2 K, Crystal	330.5
324.7 K, Crystal	331.9
325.2 K, Crystal	333.5
325.7 K, Crystal	333.6
326.2 K, Crystal	334.4
326.7 K, Crystal	335
327.2 K, Crystal	335.2
327.7 K, Crystal	334.1
328.2 K, Crystal	335
328.7 K, Crystal	337.4
329.2 K, Crystal	336.3
329.7 K, Crystal	338.1
330.2 K, Crystal	338.7
330.7 K, Crystal	337.8
331.2 K, Crystal	338.5
331.7 K, Crystal	339.5
332.2 K, Crystal	340.3
332.7 K, Crystal	342.3
333.2 K, Crystal	341.3
333.7 K, Crystal	342.1
334.2 K, Crystal	343.3
334.7 K, Crystal	343.6
335.2 K, Crystal	343.9
335.7 K, Crystal	346.5
336.2 K, Crystal	344.9
336.7 K, Crystal	346.6
337.2 K, Crystal	346.4
337.7 K, Crystal	346.9
338.2 K, Crystal	349.4
338.7 K, Crystal	347.8
339.19 K, Crystal	348.2
339.69 K, Crystal	348.7
340.2 K, Crystal	350.4
340.7 K, Crystal	352.5
341.2 K, Crystal	350.7
341.7 K, Crystal	350.7
342.2 K, Crystal	351.4
342.7 K, Crystal	351.7
343.19 K, Crystal	353.4
343.69 K, Crystal	353.1
344.19 K, Crystal	353.4
344.69 K, Crystal	356.8
345.19 K, Crystal	357
345.69 K, Crystal	355.2
346.19 K, Crystal	357.3
346.69 K, Crystal	357.3
347.19 K, Crystal	358.3
347.69 K, Crystal	359.2
348.19 K, Crystal	360.3
348.69 K, Crystal	361.6
349.19 K, Crystal	362.4
349.69 K, Crystal	360.9
350.19 K, Crystal	361.8
350.69 K, Crystal	363.3
351.19 K, Crystal	364.3
351.69 K, Crystal	363.9
352.19 K, Crystal	363.4
352.69 K, Crystal	366
353.19 K, Crystal	365.4
353.69 K, Crystal	368.2
354.19 K, Crystal	369.3
354.69 K, Crystal	370
355.19 K, Crystal	372.4
355.69 K, Crystal	375.2
356.19 K, Crystal	373.6
356.69 K, Crystal	374.5
357.19 K, Crystal	374.8
357.69 K, Crystal	380
358.19 K, Crystal	380.1
358.69 K, Crystal	381.4
359.19 K, Crystal	382.3
359.69 K, Crystal	387
360.19 K, Crystal	391.3
360.69 K, Crystal	393.9
361.19 K, Crystal	397.9
361.69 K, Crystal	403.5
362.19 K, Crystal	413.1
362.69 K, Crystal	424.4
363.19 K, Crystal	446.7
370.2 K, Liquid	458.6
370.7 K, Liquid	460.1
371.19 K, Liquid	461.4
371.69 K, Liquid	461.5
372.19 K, Liquid	463.4
372.69 K, Liquid	462.1
373.19 K, Liquid	464.1
373.69 K, Liquid	465.7
374.19 K, Liquid	465.5
374.69 K, Liquid	467.4
375.19 K, Liquid	464.3
375.69 K, Liquid	466.6
376.19 K, Liquid	466.5
376.69 K, Liquid	466.6
377.19 K, Liquid	467.5
377.69 K, Liquid	468.1
378.19 K, Liquid	470.5
378.69 K, Liquid	469.8
379.19 K, Liquid	468.2
379.69 K, Liquid	471.2
380.19 K, Liquid	470
380.69 K, Liquid	474
381.19 K, Liquid	473.3
381.69 K, Liquid	474
382.19 K, Liquid	470.5
382.69 K, Liquid	473.3
383.19 K, Liquid	472.6
383.69 K, Liquid	473.7
384.19 K, Liquid	474.9
384.69 K, Liquid	477.4
385.19 K, Liquid	480
385.69 K, Liquid	481.1
386.19 K, Liquid	482.1
386.69 K, Liquid	479

From the NIST ThermoML archive (doi:10.1016/j.jct.2016.09.026)
